From publication PMC11968843, “Sulphostin-inspired N-phosphonopiperidones as selective covalent DPP8 and DPP9 inhibitors” (Nature Communications, 2025)
Where “and” joins values, the source holds several entries; their conditions need not be identical. Identical values can stand only once. Entries after “also recorded” stand apart in the source; their conditions may differ.

Key:
PREP = target: T1, PREP (Homo sapiens, UniProt P48147); assay: PREP biochemical inhibition assay (GP-AMC substrate, IC50); settings: for IC50: GP-AMC 2 mM, 10 nM enzyme, 45 min pre-incubation at 30 °C; for PREP activity: individual replicates
T1 construct: purchased Sigma Aldrich, USA
T1 sequence (P48147 1-710): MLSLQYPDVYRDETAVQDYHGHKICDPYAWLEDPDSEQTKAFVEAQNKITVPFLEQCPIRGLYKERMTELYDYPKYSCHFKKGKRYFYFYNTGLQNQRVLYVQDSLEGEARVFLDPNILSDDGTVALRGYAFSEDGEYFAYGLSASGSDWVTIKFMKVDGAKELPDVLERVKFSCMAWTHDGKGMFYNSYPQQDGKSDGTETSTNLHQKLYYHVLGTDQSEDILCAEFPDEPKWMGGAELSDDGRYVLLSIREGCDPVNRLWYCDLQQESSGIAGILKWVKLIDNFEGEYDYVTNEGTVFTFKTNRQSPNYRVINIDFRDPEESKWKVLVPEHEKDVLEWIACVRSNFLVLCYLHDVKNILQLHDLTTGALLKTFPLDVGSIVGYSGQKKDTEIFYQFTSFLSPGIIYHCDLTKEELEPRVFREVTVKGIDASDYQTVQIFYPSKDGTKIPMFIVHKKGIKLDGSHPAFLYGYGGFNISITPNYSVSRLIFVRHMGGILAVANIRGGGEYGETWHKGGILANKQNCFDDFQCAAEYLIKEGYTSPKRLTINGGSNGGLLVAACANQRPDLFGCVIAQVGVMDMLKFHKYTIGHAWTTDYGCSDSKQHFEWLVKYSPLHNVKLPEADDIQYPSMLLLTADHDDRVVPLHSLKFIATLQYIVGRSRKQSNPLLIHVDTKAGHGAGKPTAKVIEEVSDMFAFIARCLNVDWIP
Experimental: Enzyme activity of DPP4, DPP8, DPP9 (Proteros Biostructures GmbH, Germany) and PREP (Sigma Aldrich, USA) was determined by measuring the initial velocity of AMC release from the fluorogenic substrate GP-AMC (Sigma Aldrich, USA) using a Tecan Spark® 10 M multimode microplate reader (Tecan Group Ltd., Switzerland) in activity buffer (20 mM HEPES/KOH pH 7.3, 110 mM potassium acetate, 2 mM Mg acetate, 0.5 mM EGTA, 0.02% Tween 20, supplemented with 1 mM DTT) and a final volume of 20 μL for maximal 60 min at 30 °C. Prior to activity measurement, 10 nM enzyme was incubated for 45 min at 30 °C and gentle shaking with the inhibitor compounds in concentrations ranging from 0 to 100 μM. The compounds were dissolved in DMSO and diluted in activity buffer (final DMSO concentration: 1%). […]. IC50 values were calculated using Graph-Pad Prism v10.2.3 using the equation: [Inhibitor] vs. response—Variable slope (four parameters). All measurements were performed in triplicates and error bars represent standard errors of the fit.

[1] = target: T2, HEK293 cell lysates (proteome-wide targets of probe 9) (Homo sapiens, UniProt P05388); assay: Competitive ABPP / direct target identification with alkyne probe 9 in HEK293 cell lysates; assay type: binding, H. sapiens; settings: protein RPLP0;RPLP0P6
T2 construct: endogenous in cells; host or cells: HEK293 cell lysate

[2] = target: T3, HEK293 cell lysates (proteome-wide targets of probe 9) (Homo sapiens, UniProt P0DMV8); assay: as above; assay type: binding, H. sapiens; settings: protein HSPA1A;HSPA1B
T3 construct: endogenous in cells; host or cells: HEK293 cell lysate
T3 sequence (P0DMV8 whole entry): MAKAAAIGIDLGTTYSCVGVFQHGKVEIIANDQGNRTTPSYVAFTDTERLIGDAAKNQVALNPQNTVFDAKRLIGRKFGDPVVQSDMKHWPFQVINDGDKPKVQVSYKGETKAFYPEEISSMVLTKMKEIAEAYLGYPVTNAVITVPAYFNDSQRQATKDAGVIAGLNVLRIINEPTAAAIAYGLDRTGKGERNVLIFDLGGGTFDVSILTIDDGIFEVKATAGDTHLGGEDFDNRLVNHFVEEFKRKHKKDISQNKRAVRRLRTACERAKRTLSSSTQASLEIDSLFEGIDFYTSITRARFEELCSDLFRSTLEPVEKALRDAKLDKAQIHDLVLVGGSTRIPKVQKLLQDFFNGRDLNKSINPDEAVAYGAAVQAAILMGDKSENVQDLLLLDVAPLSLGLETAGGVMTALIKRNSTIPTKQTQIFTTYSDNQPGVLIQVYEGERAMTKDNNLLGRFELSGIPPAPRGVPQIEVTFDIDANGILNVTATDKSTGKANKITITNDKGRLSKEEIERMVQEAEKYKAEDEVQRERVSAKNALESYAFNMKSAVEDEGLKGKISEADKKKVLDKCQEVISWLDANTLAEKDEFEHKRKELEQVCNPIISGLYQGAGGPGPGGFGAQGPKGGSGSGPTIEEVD

HeLa wild-type cells = assay: Cell viability assay (MTT), inhibitor alone; assay type: cell-based; settings: for Cell viability normalized to mock treated cells + 0 µM MMC: individual replicate values (Supplementary Figure 11a); for 95% confidence interval of difference: Figure 5d S11a, Ctrl. [-MMC] vs. compound [-MMC], Tukey's multiple comparisons test
Experimental: HeLa wild-type (HeLa Flp-In T-REx WT, kind gift from Prof. Matthias Hentze) and HeLa DPP9^KO cells (prepared in-house) were cultured in DMEM (ThermoFisher, USA) supplemented with 10% FBS (PAN Biotech, Germany), 2 mM L-Glutamin (ThermoFisher, USA) and 1% Penicillin/Streptomycin (100 U mL^−1 Penicillin and 100 µg mL^−1 Streptomycin, ThermoFisher, USA). Cells were seeded in 96-well flat-bottom cell culture plates (Greiner, Germany) at a concentration of 5 × 10^3 cells per well (37 °C and 5% CO2). The indicated concentration of Mitomycin C (MMC, Merck) was added to the cells 24 h after seeding, together with 10 µM of the indicated inhibitor. The inhibitors were refreshed every 24 h. Control cells were treated with DMSO.
Cell viability was measured 72 hours after the MMC treatment. For this, the medium was removed and replaced with phenol-red free DMEM (ThermoFisher, USA) containing 0.5 mg mL^−1 MTT (Sigma Aldrich, USA). Cells were incubated for 30 min at 37 °C, 5% CO2. Subsequently, the medium was removed and replaced by DMSO. The plates were shaken on an orbital shaker for 20 min before measuring the MTT signal on a CARIOstar Plus microplate reader (BMT labtech, Germany). Each experiment was performed three times, each in triplicates.

[3] = target: T4, DPP9-BRCA2 interaction in HeLa wild-type cells (Homo sapiens, UniProt Q86TI2); assay: Proximity ligation assay (PLA) of MMC-induced DPP9-BRCA2 interaction; assay type: cell-based; settings: for 95% confidence interval of difference: compound vs. +Ctrl., Unpaired two-sided t-test
T4 construct: endogenous in cells; host or cells: HeLa wild-type (HeLa Flp-In T-REx WT)
T4 sequence (Q86TI2 whole entry): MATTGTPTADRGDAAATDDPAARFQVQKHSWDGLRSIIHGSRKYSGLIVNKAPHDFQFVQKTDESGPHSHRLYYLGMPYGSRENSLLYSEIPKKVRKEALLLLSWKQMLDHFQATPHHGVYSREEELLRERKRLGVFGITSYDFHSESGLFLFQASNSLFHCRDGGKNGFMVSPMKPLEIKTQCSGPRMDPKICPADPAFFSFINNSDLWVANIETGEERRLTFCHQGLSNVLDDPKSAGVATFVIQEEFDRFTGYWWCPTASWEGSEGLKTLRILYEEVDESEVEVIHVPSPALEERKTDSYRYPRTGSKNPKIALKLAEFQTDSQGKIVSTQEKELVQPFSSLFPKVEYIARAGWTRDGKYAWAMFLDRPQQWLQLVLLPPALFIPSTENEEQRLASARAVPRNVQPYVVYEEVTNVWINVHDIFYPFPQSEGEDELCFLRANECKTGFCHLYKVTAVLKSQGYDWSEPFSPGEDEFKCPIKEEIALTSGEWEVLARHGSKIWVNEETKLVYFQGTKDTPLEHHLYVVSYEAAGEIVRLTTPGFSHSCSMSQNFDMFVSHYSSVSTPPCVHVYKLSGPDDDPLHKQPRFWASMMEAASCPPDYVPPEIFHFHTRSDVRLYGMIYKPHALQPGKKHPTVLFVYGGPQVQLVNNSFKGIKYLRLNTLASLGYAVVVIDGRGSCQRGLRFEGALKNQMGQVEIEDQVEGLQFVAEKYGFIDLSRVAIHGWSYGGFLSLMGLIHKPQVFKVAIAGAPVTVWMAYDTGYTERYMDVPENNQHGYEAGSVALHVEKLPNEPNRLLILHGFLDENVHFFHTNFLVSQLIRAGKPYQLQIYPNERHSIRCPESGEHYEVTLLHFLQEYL
Experimental: HeLa wild-type cells were cultured as described above. Cells were seeded on coverslips in 24‐well plates (Greiner, Germany) at a concentration of 2 × 10^4 cells per well (37 °C and 5% CO2). To induce a DPP9-BRCA2 interaction, 300 nM MMC was added to the cells 8 h after seeding and for a total incubation time of 24 h. Indicated Inhibitors (10 µM) were added 1 h prior to cell fixation. Cells were fixed with 4% formaldehyde in PBS for 10 min and permeabilized with 0.2% Triton‐X‐100 in PBS for 5 min. The proximity ligation assay (PLA) was performed using the Duolink in situ PLA Kit (Sigma Aldrich, USA). Briefly, cells were washed with PBS and blocked with Duolink Blocking solution for 60 min at 37 °C. […] Antibody control coverslips were treated with only one primary antibody to estimate background staining in each experiment. Coverslips were washed and treated with PLA reagents according to the manufacturers protocol. Cells were mounted in DAKO with DAPI fluorescent mounting medium and analyzed using an LSM 710 confocal microscope, 63x NA 1.4 oil immersion objective (Zeiss, Germany). Images were processed using Zen black v2.3 (Zeiss, Germany) and subsequently analyzed using the Duolink ImageTool Setup 1.0.1.2 (Sigma Aldrich, USA).

SMILES: C#CCCCP(=O)(OCC)N1CCCC(N)C1=O.O=C(O)C(F)(F)F (mixture of isomers) [Compound 9]
- IC50 (PREP): 13.4 µM
- PREP activity (PREP; c 1562.5 nM): 90.6956% and 100.18% and 91.6611%
- PREP activity (PREP; c 3125 nM): 81.4016% and 83.8359% and 86.7341%
- PREP activity (PREP; c 6250 nM): 70.1184% and 68.121% and 70.2915%
- PREP activity (PREP; c 25000 nM): 42.6998% and 39.4794% and 39.8185%
- PREP activity (PREP; c 50000 nM): 17.1276% and 17.8294% and 21.3954%
- PREP activity (PREP; c 100000 nM): 12.8608% and 13.0915% and 11.6555%
- Log2-fold change (9/DMSO) [1]: 0.9479
- Log2-fold change (9/DMSO) [2]: 0.0845

SMILES: CCCCCCP(=O)(OCC)N1CCC[C@H](N)C1=O (stereo partly drawn) [Compound 5]
- Cell viability normalized to mock treated cells + 0 µM MMC (HeLa wild-type cells): 95.9127% and 99.5028% and 95.7865% and 114.42% and 79.6662% and 94.1915% and 91.8119% and 83.2505% and 91.8375%
- 95% confidence interval of difference (HeLa wild-type cells): -2,823 to 18,38

SMILES: CCCCCc1ccc(SCCP(=O)(OCC)N2CCC[C@H](N)C2=O)cc1.O=C(O)C(F)(F)F (stereo partly drawn) [Compound 16]
- IC50 (PREP): > 50 µM
- PREP activity (PREP; c 1562.5 nM): 98.7862% and 85.8025% and 104.946%
- PREP activity (PREP; c 3125 nM): 105.742% and 108.717% and 107.921%
- PREP activity (PREP; c 6250 nM): 96.1256% and 97.1517% and 97.4675%
- PREP activity (PREP; c 25000 nM): 92.3447% and 104.519% and 98.6461%
- PREP activity (PREP; c 50000 nM): 66.9978% and 69.9305% and 64.8732%
- PREP activity (PREP; c 100000 nM): 38.3396% and 47.6921% and 43.692%
- activity against PREP (PREP; within the nanomolar and low micromolar range (< 50 µM)): no activity against PREP
- 95% confidence interval of difference ([3]; Figure 5c): -75,96 to -55,68
- 95% confidence interval of difference ([3]; Figure S10a replicate 1): -67,48 to -40,38
- 95% confidence interval of difference ([3]; Figure S10a replicate 2): -89,07 to -45,54
- 95% confidence interval of difference ([3]; Figure S10a replicate 3): -92,21 to -59,25
- effect on MMC-induced DPP9-BRCA2 PLA events ([3]; HeLa wild-type, 300 nM MMC 24 h, 10 µM inhibitor): significant reduction in the number of MMC-induced PLA events
- Cell viability normalized to mock treated cells + 0 µM MMC (HeLa wild-type cells): 97.3681% and 98.2989% and 98.3512% and 104.946% and 88.3417% and 98.5541% and 95.4309% and 92.3469% and 88.9994%
- 95% confidence interval of difference (HeLa wild-type cells): -4,629 to 16,57
- effect on cell viability without MMC (HeLa wild-type cells; HeLa wild-type, 10 µM, 72 h): not toxic to cells; also recorded: did not show cytotoxic effects
